Laboratory results taken from patent US20230085307A1, “PYRIDAZINONE COMPOUND AND HERBICIDE” (NISSAN CHEMICAL CORPORATION, priority 2019, published 2023).

Key:
green foxtail = test: Test Example 5: herbicidal effect by foliage application, plastic box (Table 20, symbol G); assay type: in vivo, green foxtail (Setaria viridis); conditions: 320 g/ha; for G: green foxtail, herbicidal effect grade: foliage application, three weeks after application; for herbicidal effect on G: green foxtail (evaluation grade 0-5): foliage application after 14-day growth, evaluated three weeks after application
In short: (§1)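 Plants sown in sterilized diluvial soil and grown 14 days in a greenhouse at 25° C to 30° C, then sprayed on the foliage with the compound's emulsion diluted in water to a predetermined herbicide amount. Injury to weeds and crops scored three weeks after application on a visual rating scale.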

late watergrass = test: Test Example 1: herbicidal activity, application before weed generation under submerged conditions (Table 16, symbol A); assay type: in vivo, late watergrass (Echinochloa oryzicola); conditions: amount of applied herbicide 320 g/ha
In short: (§2)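 Alluvial soil was flooded to 4 cm depth, weed seeds were sown mixed and 2.5-leaf rice seedlings were transplanted. On sowing day, the compound's emulsion, diluted in water to a set dose, was applied to the water surface. Plants grew at 25–30 °C and were scored 0–5 after three weeks.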

redroot pigweed = test: Test Example 4: herbicidal effect by soil treatment (Table 19, symbol N); assay type: in vivo, redroot pigweed (Amaranthus retroflexus); conditions: amount of applied herbicide 320 g/ha
In short: (§3)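 Three weeks of greenhouse growth at 25° C. to 30° C. followed a uniform surface spray of water-diluted emulsion at a predetermined herbicide amount. Seeds had been sown beforehand under about 1.5 cm of sterilized diluvial soil. Grading followed criteria set out in an earlier test.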

barnyard grass = test: Test Example 5: herbicidal effect by foliage application, plastic box (Table 20, symbol H); assay type: in vivo, barnyard grass (Echinochloa crus-galli); conditions: 320 g/ha; for H: barnyard grass, herbicidal effect grade: foliage application, three weeks after application; for herbicidal effect on H: barnyard grass (evaluation grade 0-5): foliage application after 14-day growth, evaluated three weeks after application
In short: as §1

Chinese sprangletop = test: Test Example 3: herbicidal effect by foliage application, Wagner pot (Table 18, symbol D); assay type: in vivo, chinese sprangletop (Leptochloa chinensis); conditions: 320 g/ha
In short: (§4)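 Plants were sown in alluvial soil held under 0.1–0.5 cm standing water and grown 14 days in a greenhouse at 25–30 °C. An emulsifiable formulation, water-diluted to the set dose, was then sprayed onto the foliage, and effects were scored three weeks later using previously defined criteria.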

southern crabgrass [1] = test: Test Example 5: herbicidal effect by foliage application, plastic box (Table 20, symbol F); assay type: in vivo, southern crabgrass (Digitaria ciliaris); conditions: 320 g/ha; for F: southern crabgrass, herbicidal effect grade: foliage application, three weeks after application; for herbicidal effect on F: southern crabgrass (evaluation grade 0-5): foliage application after 14-day growth, evaluated three weeks after application
In short: as §1

southern crabgrass [2] = test: Test Example 4: herbicidal effect by soil treatment (Table 19, symbol F); assay type: in vivo, southern crabgrass (Digitaria ciliaris); conditions: amount of applied herbicide 320 g/ha
In short: as §3

lambsquarters = test: Test Example 5: herbicidal effect by foliage application, plastic box (Table 20, symbol O); assay type: in vivo, lambsquarters (Chenopodium album); conditions: 320 g/ha; for O: lambsquarters, herbicidal effect grade: foliage application, three weeks after application; for herbicidal effect on O: lambsquarters (evaluation grade 0-5): foliage application after 14-day growth, evaluated three weeks after application
In short: as §1

oval-leafed pondweed [3] = test: Test Example 1: herbicidal activity, application before weed generation under submerged conditions (Table 16, symbol C); assay type: in vivo, oval-leafed pondweed (Monochoria vaginalis); conditions: amount of applied herbicide 320 g/ha
In short: as §2

wild oat = test: Test Example 5: herbicidal effect by foliage application, plastic box (Table 20, symbol I); assay type: in vivo, wild oat (Avena fatua); conditions: 320 g/ha; for I: wild oat, herbicidal effect grade: foliage application, three weeks after application; for herbicidal effect on I: wild oat (evaluation grade 0-5): foliage application after 14-day growth, evaluated three weeks after application
In short: as §1

oval-leafed pondweed [4] = test: Test Example 2: herbicidal activity, application during weed generation under submerged conditions (Table 17, symbol C); assay type: in vivo, oval-leafed pondweed (Monochoria vaginalis); conditions: AAH 320 g/ha; application during weed generation, submerged conditions
In short: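 Wagner pot, alluvial soil, 4 cm flood; mixed sowing of all species; greenhouse 25° C.–30° C. Emulsifiable formulation, water-diluted to predetermined dose, applied to paddy water at 1–2 leaf stage. Effect rated at 3 wk using the earlier test's scoring criteria.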

persian speedwell = test: Test Example 4: herbicidal effect by soil treatment (Table 19, symbol R); assay type: in vivo, Persian speedwell (Veronica persica); conditions: amount of applied herbicide 320 g/ha
In short: as §3

windgrass [5] = test: Test Example 5: herbicidal effect by foliage application, plastic box (Table 20, symbol L); assay type: in vivo, windgrass (Apera spica-venti); conditions: foliage application, 320 g/ha, three weeks after application
In short: as §1

rice flat sedge = test: Test Example 3: herbicidal effect by foliage application, Wagner pot (Table 18, symbol E); assay type: in vivo, rice flat sedge (Cyperus iria); conditions: 320 g/ha
In short: as §4

Japanese bulrush = test: Test Example 1: herbicidal activity, application before weed generation under submerged conditions (Table 16, symbol B); assay type: in vivo, Japanese bulrush (Schoenoplectus juncoides); conditions: amount of applied herbicide 320 g/ha
In short: as §2

windgrass [6] = test: Test Example 4: herbicidal effect by soil treatment (Table 19, symbol L); assay type: in vivo, windgrass (Apera spica-venti); conditions: amount of applied herbicide 320 g/ha
In short: as §3

COc1cc(F)ccc1-c1sc2cc(Cl)ccc2c1-c1c(O)c(C)nn(C)c1=O [3-043]
G: green foxtail, herbicidal effect grade (green foxtail): 5 (Herbicidal rate of 90% or more (almost completely withered))
Herbicidal effect, A: late watergrass (late watergrass): 0 (Herbicidal rate of 5% or less (almost no effect))
N: redroot pigweed, herbicidal effect grade (redroot pigweed): 4 (Herbicidal rate of 70% or more and less than 90%)
H: barnyard grass, herbicidal effect grade (barnyard grass): 4 (Herbicidal rate of 70% or more and less than 90%)
herbicidal effect on Chinese sprangletop (D) (Chinese sprangletop): 3 (Herbicidal rate of 40% or more and less than 70%)
F: southern crabgrass, herbicidal effect grade (southern crabgrass [1]): 0 (Herbicidal rate of 5% or less (almost no effect))
F: southern crabgrass, herbicidal effect grade (southern crabgrass [2]): 0 (Herbicidal rate of 5% or less (almost no effect))
O: lambsquarters, herbicidal effect grade (lambsquarters): 4 (Herbicidal rate of 70% or more and less than 90%)
Herbicidal effect, C: oval-leafed pondweed (oval-leafed pondweed [3]): 2 (Herbicidal rate of 20% or more and less than 40%)
I: wild oat, herbicidal effect grade (wild oat): 4 (Herbicidal rate of 70% or more and less than 90%)
herbicidal effect rating, C: oval-leafed pondweed (oval-leafed pondweed [4]): 0 (Herbicidal rate of 5% or less (almost no effect))
R: persian speedwell, herbicidal effect grade (persian speedwell): 3 (Herbicidal rate of 40% or more and less than 70%)
L: windgrass, herbicidal effect grade (windgrass [5]): 5 (Herbicidal rate of 90% or more (almost completely withered))
herbicidal effect on rice flat sedge (E) (rice flat sedge): 5 (Herbicidal rate of 90% or more (almost completely withered))
Herbicidal effect, B: Japanese bulrush (Japanese bulrush): 1 (Herbicidal rate of 5% or more and less than 20%)

CCCOc1ccc2c(-c3c(O)c(C)nn(C)c3=O)c(-c3ccccc3OC)sc2c1 [3-099]
G: green foxtail, herbicidal effect grade (green foxtail): 5 (Herbicidal rate of 90% or more (almost completely withered))
Herbicidal effect, A: late watergrass (late watergrass): 5 (Herbicidal rate of 90% or more (almost completely withered))
N: redroot pigweed, herbicidal effect grade (redroot pigweed): 5 (Herbicidal rate of 90% or more (almost completely withered))
H: barnyard grass, herbicidal effect grade (barnyard grass): 5 (Herbicidal rate of 90% or more (almost completely withered))
herbicidal effect on Chinese sprangletop (D) (Chinese sprangletop): 5 (Herbicidal rate of 90% or more (almost completely withered))
F: southern crabgrass, herbicidal effect grade (southern crabgrass [1]): 5 (Herbicidal rate of 90% or more (almost completely withered))
F: southern crabgrass, herbicidal effect grade (southern crabgrass [2]): 5 (Herbicidal rate of 90% or more (almost completely withered))
O: lambsquarters, herbicidal effect grade (lambsquarters): 5 (Herbicidal rate of 90% or more (almost completely withered))
Herbicidal effect, C: oval-leafed pondweed (oval-leafed pondweed [3]): 5 (Herbicidal rate of 90% or more (almost completely withered))
I: wild oat, herbicidal effect grade (wild oat): 2 (Herbicidal rate of 20% or more and less than 40%)
herbicidal effect rating, C: oval-leafed pondweed (oval-leafed pondweed [4]): 3 (Herbicidal rate of 40% or more and less than 70%)
R: persian speedwell, herbicidal effect grade (persian speedwell): 4 (Herbicidal rate of 70% or more and less than 90%)
L: windgrass, herbicidal effect grade (windgrass [5]): 5 (Herbicidal rate of 90% or more (almost completely withered))
herbicidal effect on rice flat sedge (E) (rice flat sedge): 5 (Herbicidal rate of 90% or more (almost completely withered))
Herbicidal effect, B: Japanese bulrush (Japanese bulrush): 5 (Herbicidal rate of 90% or more (almost completely withered))

COc1ccccc1-c1sc2cc(OCC3CCCO3)ccc2c1-c1c(O)c(C)nn(C)c1=O (stereo not drawn) [3-133]
G: green foxtail, herbicidal effect grade (green foxtail): 5 (Herbicidal rate of 90% or more (almost completely withered))
Herbicidal effect, A: late watergrass (late watergrass): 3 (Herbicidal rate of 40% or more and less than 70%)
Herbicidal effect by soil treatment, N: redroot pigweed (redroot pigweed): 5 (Herbicidal rate of 90% or more (almost completely withered))
H: barnyard grass, herbicidal effect grade (barnyard grass): 3 (Herbicidal rate of 40% or more and less than 70%)
herbicidal effect on Chinese sprangletop (D) (Chinese sprangletop): 3 (Herbicidal rate of 40% or more and less than 70%)
F: southern crabgrass, herbicidal effect grade (southern crabgrass [1]): 4 (Herbicidal rate of 70% or more and less than 90%)
Herbicidal effect by soil treatment, F: southern crabgrass (southern crabgrass [2]): 2 (Herbicidal rate of 20% or more and less than 40%)
O: lambsquarters, herbicidal effect grade (lambsquarters): 5 (Herbicidal rate of 90% or more (almost completely withered))
Herbicidal effect, C: oval-leafed pondweed (oval-leafed pondweed [3]): 4 (Herbicidal rate of 70% or more and less than 90%)
I: wild oat, herbicidal effect grade (wild oat): 4 (Herbicidal rate of 70% or more and less than 90%)
Herbicidal effect by soil treatment, L: windgrass (windgrass [6]): 5 (Herbicidal rate of 90% or more (almost completely withered))
herbicidal effect rating, C: oval-leafed pondweed (oval-leafed pondweed [4]): 1 (Herbicidal rate of 5% or more and less than 20%)
L: windgrass, herbicidal effect grade (windgrass [5]): 5 (Herbicidal rate of 90% or more (almost completely withered))
herbicidal effect on rice flat sedge (E) (rice flat sedge): 5 (Herbicidal rate of 90% or more (almost completely withered))
Herbicidal effect, B: Japanese bulrush (Japanese bulrush): 3 (Herbicidal rate of 40% or more and less than 70%)

C=C(C)C(=O)Oc1c(C)nn(C)c(=O)c1-c1c(-c2ccccc2OC)sc2cc(OC)ccc12 [3-155]
herbicidal effect on G: green foxtail (evaluation grade 0-5) (green foxtail): 5 (Herbicidal rate of 90% or more (almost completely withered))
Herbicidal effect, A: late watergrass (late watergrass): 5 (Herbicidal rate of 90% or more (almost completely withered))
Herbicidal effect by soil treatment, N: redroot pigweed (redroot pigweed): 4 (Herbicidal rate of 70% or more and less than 90%)
herbicidal effect on H: barnyard grass (evaluation grade 0-5) (barnyard grass): 5 (Herbicidal rate of 90% or more (almost completely withered))
herbicidal effect on Chinese sprangletop (D) (Chinese sprangletop): 4 (Herbicidal rate of 70% or more and less than 90%)
herbicidal effect on F: southern crabgrass (evaluation grade 0-5) (southern crabgrass [1]): 5 (Herbicidal rate of 90% or more (almost completely withered))
Herbicidal effect by soil treatment, F: southern crabgrass (southern crabgrass [2]): 0 (Herbicidal rate of 5% or less (almost no effect))
herbicidal effect on O: lambsquarters (evaluation grade 0-5) (lambsquarters): 4 (Herbicidal rate of 70% or more and less than 90%)
Herbicidal effect, C: oval-leafed pondweed (oval-leafed pondweed [3]): 5 (Herbicidal rate of 90% or more (almost completely withered))
herbicidal effect on I: wild oat (evaluation grade 0-5) (wild oat): 3 (Herbicidal rate of 40% or more and less than 70%)
Herbicidal effect by soil treatment, L: windgrass (windgrass [6]): 4 (Herbicidal rate of 70% or more and less than 90%)
herbicidal effect rating, C: oval-leafed pondweed (oval-leafed pondweed [4]): 5 (Herbicidal rate of 90% or more (almost completely withered))
Herbicidal effect by soil treatment, R: persian speedwell (persian speedwell): 0 (Herbicidal rate of 5% or less (almost no effect))
herbicidal effect on rice flat sedge (E) (rice flat sedge): 4 (Herbicidal rate of 70% or more and less than 90%)
Herbicidal effect, B: Japanese bulrush (Japanese bulrush): 5 (Herbicidal rate of 90% or more (almost completely withered))

CCCC(=O)Oc1c(C)nn(C)c(=O)c1-c1c(-c2ccc(OC)cc2)sc2c(F)cccc12 [4-006]
herbicidal effect on G: green foxtail (evaluation grade 0-5) (green foxtail): 4 (Herbicidal rate of 70% or more and less than 90%)
Herbicidal effect, A: late watergrass (late watergrass): 3 (Herbicidal rate of 40% or more and less than 70%)
Herbicidal effect by soil treatment, N: redroot pigweed (redroot pigweed): 4 (Herbicidal rate of 70% or more and less than 90%)
herbicidal effect on H: barnyard grass (evaluation grade 0-5) (barnyard grass): 4 (Herbicidal rate of 70% or more and less than 90%)
herbicidal effect on Chinese sprangletop (D) (Chinese sprangletop): 5 (Herbicidal rate of 90% or more (almost completely withered))
herbicidal effect on F: southern crabgrass (evaluation grade 0-5) (southern crabgrass [1]): 1 (Herbicidal rate of 5% or more and less than 20%)
Herbicidal effect by soil treatment, F: southern crabgrass (southern crabgrass [2]): 0 (Herbicidal rate of 5% or less (almost no effect))
herbicidal effect on O: lambsquarters (evaluation grade 0-5) (lambsquarters): 3 (Herbicidal rate of 40% or more and less than 70%)
Herbicidal effect, C: oval-leafed pondweed (oval-leafed pondweed [3]): 0 (Herbicidal rate of 5% or less (almost no effect))
herbicidal effect on I: wild oat (evaluation grade 0-5) (wild oat): 0 (Herbicidal rate of 5% or less (almost no effect))
Herbicidal effect by soil treatment, L: windgrass (windgrass [6]): 0 (Herbicidal rate of 5% or less (almost no effect))
herbicidal effect rating, C: oval-leafed pondweed (oval-leafed pondweed [4]): 2 (Herbicidal rate of 20% or more and less than 40%)
Herbicidal effect by soil treatment, R: persian speedwell (persian speedwell): 0 (Herbicidal rate of 5% or less (almost no effect))
herbicidal effect on rice flat sedge (E) (rice flat sedge): 5 (Herbicidal rate of 90% or more (almost completely withered))
Herbicidal effect, B: Japanese bulrush (Japanese bulrush): 3 (Herbicidal rate of 40% or more and less than 70%)
